From patent US12350341B2, “Methods for the treatment of cancer and benign lesions by ablation” (Duke University, priority 2017, dated 2025)
Several values for one entry are separate records, joined by “and”; a condition that tells them apart may be missing. Identical values can stand only once. Like-named read-outs stand apart in the source and are kept apart here.

Assays:
[1] = tested on: HeLa human cervical carcinoma cells; assay: In vitro viability study, trypan blue exclusion assay; format: cell-based; details: 0.5 mL solution added to 0.5 mL media, 15 seconds at room temperature, PBS control 86%
Description: Low passage HeLa human cervical carcinoma cells (ATCC) were maintained with Eagles minimum essential medium (MEM, Gibeo, Carlsbad, California) supplemented with 10% (vol.) fetal bovine serum, 1% (vol.) penicillin and 1% (vol.) streptomycin. Cells were passaged twice per week and maintained at 37° C. and 5% CO2. Cells were cultured in two 12-well plates and grown to 80% confluence. Immediately before the experiment, cell media was removed and 0.5 mL of fresh media was added to each well. Next, each well was treated with 0.5 mL of either ethanol (200 proof, Koptec, King of Prussia, PA), 3% (w/w) ethyl cellulose (USP, Sigma Aldrich, Rockville, MD) in ethanol or PBS (control), added directly to the media. […] Tapani, E., et al., Toxicity of ethanol in low concentrations. Experimental evaluation in cell culture. Acta Radiol, 1996. 37(6): p. 923-6. The media containing the treatment solution was then removed, each well was rinsed twice with 1 mL of PBS, and given 1 mL of fresh MEM media. After all wells had been treated, each well was rinsed one time with 1 mL of PBS, given 250 μL of […] trypsin (Gibed, Carlsbad, CA), and returned to the incubator for 5 minutes. […] Viability was then assessed with a trypan blue exclusion assay (Gibco, Carlsbad, CA and a Countess Automated Cell Counter, Invitrogen, Carlsbad, CA). […]

[2] = tested on: squamous cell carcinoma tumors in the hamster cheek pouch; assay: Injection rate- and viscosity-controlled ablation study, hamster cheek pouch model; format: in vivo; details: day 7, 50 μL injected, mean over injection rates 0.1, 1.0, 10 and 100 mL/hr
Description: Three percent ethyl cellulose (Sigma Aldrich)-ethanol solutions (weight by weight) were prepared by stirring at room temperature. Three percent was chosen as higher viscosities required a lockable needle to stay attached to the syringe at high injection rates. Two drops of blue food dye were added for every 1 mL of ethanol and ethyl cellulose-ethanol solutions to enhance contrast. 50 μL of either solution was injected at a rate of 0.1, 0.5, 1.0, 5.0, 10 or 35 mL/hr as controlled by a syringe pump (NE-300 Just Infusion Syringe Pump). Manual injections were approximately 100 mL/hr. A 1 mL syringe and 27 G needles connected with microtubing (Tygon Microtube Tubing, 0.25 mmID) were used for injections. On the outflow-end of the catheter tube a 27 G needle was snapped off the base to fit into the tubing.
Oral Surg Oral Med Oral Pathol, 1986. 61(4): p. 368-72. […] The cheek pouches were painted until tumors of at least 100 uL in volume developed, at approximately 22 weeks.
The average tumor volume was 195±140 μL and 50 μL of solution (either ethanol or 3% ethyl cellulose-ethanol) was injected. Solutions were injected with the syringe pump at 0.1, 1.0 or 10 mL/hr or injected manually. Tumor volume was measured before injections and at 1, 2 4 and 7 days following the injection. […] 36 total ablations were performed on 8 animals. […]

[3] = tested on: squamous cell carcinoma tumors in the hamster cheek pouch; details: for Tumors with complete response (no visible lesion): day 7, manual high-volume injection, 13 tumors ablated; for Tumor volume as % of the initial volume (normalized tumor volume): day 7, manual intratumoral injection, average 284±350 μL pure ethanol, 13 tumors
Text: The animal study protocol was approved by the Duke University Institutional Animal Care and Use Committee. For the manual pure ethanol ablation study, a total of 6 hamsters were used. For the rate- and viscosity-controlled study, a total of 8 hamsters were used. Tumors were induced through the topical application of dimethylbenz[a]anthracene (Sigma-Aldrich). Burns, R. A., et al., Tumor-localizing and photosensitizing properties of hematoporphyrin derivative in hamster buccal pouch carcinoma. Oral Surg Oral Med Oral Pathol, 1986. 61(4): p. 368-72. Three times a week the buccal mucosa of each cheek pouch was inverted then stretched from the mouth. An area of approximately […] was painted with a cotton swab dipped in the DMBA-mineral oil solution. The cheek pouches were painted until tumors of at least 100 uL in volume developed, at approximately 22 weeks.
Tumor volumes were measured before the injection and daily for 7 days after. […] They were only performed if the tumor volume had increased for two consecutive days after the 7 day observation period. Volumes were calculated by measuring the longest axis and the orthogonal axis and using the following formula: V=4/3π*(Rlong^2)*(Rorth). Complete response is defined as the total absence of any evidence of a tumor or raised lesion by visual examination.
For cell viability analysis, a one-Way ANOVA was used followed by a Tukey-HSD. For both phantom distribution volume and in vivo normalized tumor volume analysis, a non-parametric ANOVA was used (Kruskal-Wallis) followed by a non-parametric multiple comparisons test (Dunn's test). In comparing phantom distribution volume and in vivo normalized tumor volume, the Pearson's product moment correlation coefficient was calculated. All statistical analysis was performed in R. Normalized tumor volume was calculated by dividing by the volume at a given time point by the initial volume before treatment.

CCO [ethanol]
Viability (live cell count/total cell count) [1]: 19%
Normalized tumor volume [2]: 79±79%
Tumors with complete response (no visible lesion) [3]: 4 of 13
Tumors with complete response (no visible lesion) ([3]; listed as pure ethanol): 4 and 4 out of 13 and 4/13
Tumor volume as % of the initial volume (normalized tumor volume) [3]: 30%
Tumor volume as % of the initial volume (normalized tumor volume) ([3]; listed as pure ethanol): 30±33%
